Molecular target: GABA-A receptor; anion channel
Assay: Displacement of [3H]flunitrazepine binding from GABA-A central benzodiazepine receptor of rat cerebral cortical membrane

| Ki | SMILES |
| --- | --- |
| > 10 µM | O=c1cc(-c2ccccc2[N+](=O)[O-])oc2ccc([N+](=O)[O-])cc12 |
| 0.275 µM | O=c1cc(-c2ccccc2)oc2ccc([N+](=O)[O-])cc12 |
| 0.285 µM | O=c1cc(-c2cccc([N+](=O)[O-])c2)oc2ccccc12 |
| > 20 µM | O=c1cc(-c2ccc(Br)cc2)oc2ccccc12 |
| > 20 µM | O=c1cc(-c2ccccc2[N+](=O)[O-])oc2ccccc12 |
| 0.019 µM | O=c1cc(-c2cccc(Br)c2)oc2ccc(Br)cc12 |
| 0.2 µM | O=c1cc(-c2ccc([N+](=O)[O-])cc2)oc2ccc(Br)cc12 |
| 0.413 µM | O=c1cc(-c2cccc(Br)c2)oc2ccccc12 |
| 0.18 µM | O=c1cc(-c2cccc([N+](=O)[O-])c2)oc2ccc(F)cc12 |
| 0.614 µM | O=c1cc(-c2cccc(Cl)c2)oc2ccccc12 |
| 0.208 µM | O=c1cc(-c2ccccc2[N+](=O)[O-])oc2ccc(Br)cc12 |
| 0.008 µM | O=c1cc(-c2cccc([N+](=O)[O-])c2)oc2ccc(Cl)cc12 |
| > 20 µM | O=c1c(Br)c(-c2cccc([N+](=O)[O-])c2)oc2ccccc12 |
| > 75 µM | O=c1c(Br)c(-c2ccccc2)oc2ccc(Br)cc12 |
| 4.5 µM | O=c1cc(-c2ccccc2)oc2ccc(F)cc12 |
| > 75 µM | O=c1c(Br)c(-c2ccccc2)oc2ccccc12 |
| > 20 µM | O=c1cc(-c2cc([N+](=O)[O-])cc([N+](=O)[O-])c2)oc2ccccc12 |
| 0.025 µM | O=c1cc(-c2cccc(Br)c2)oc2ccc([N+](=O)[O-])cc12 |
| 0.075 µM | O=c1cc(-c2ccccc2)oc2ccc(Br)cc12 [6-BROMOFLAVONE] |
| 0.164 µM | O=c1cc(-c2ccccc2)oc2ccc(Cl)cc12 [6-CHLOROFLAVONE] |
| 1 µM | O=c1cc(-c2ccccc2)oc2ccccc12 [FLAVONE] |

| SMILES | Ki |
| --- | --- |
| O=c1cc(-c2cccc([N+](=O)[O-])c2)oc2ccc([N+](=O)[O-])cc12 | 0.026 µM |
| O=c1cc(-c2ccc([N+](=O)[O-])cc2)oc2ccc([N+](=O)[O-])cc12 | > 10 µM |

Reference: ChEMBL document CHEMBL1130499, “Synthesis of halogenated/nitrated flavone derivatives and evaluation of their affinity for the central benzodiazepine receptor” (Bioorg Med Chem Lett, 1997)
